Patent publication US6166000A, “Methods for preparation and use of 1α,24(S)-Dihydroxy vitamin . D.sub2” (priority 1995, dated 2000)
Like-named read-outs stand apart in the source and are kept apart here.

Tests used:
vitamin D receptor (VDR) = target: T1, vitamin D receptor (VDR) (Homo sapiens, UniProt P11473); experiment: Vitamin D-dependent transcriptional activation: growth hormone production in COS-1 cells co-transfected with VDR plasmid and VDRE-GH plasmid; type: cell-based; conditions: for Total GH Production: averages of duplicate determinations
T1 sequence (P11473 1-427): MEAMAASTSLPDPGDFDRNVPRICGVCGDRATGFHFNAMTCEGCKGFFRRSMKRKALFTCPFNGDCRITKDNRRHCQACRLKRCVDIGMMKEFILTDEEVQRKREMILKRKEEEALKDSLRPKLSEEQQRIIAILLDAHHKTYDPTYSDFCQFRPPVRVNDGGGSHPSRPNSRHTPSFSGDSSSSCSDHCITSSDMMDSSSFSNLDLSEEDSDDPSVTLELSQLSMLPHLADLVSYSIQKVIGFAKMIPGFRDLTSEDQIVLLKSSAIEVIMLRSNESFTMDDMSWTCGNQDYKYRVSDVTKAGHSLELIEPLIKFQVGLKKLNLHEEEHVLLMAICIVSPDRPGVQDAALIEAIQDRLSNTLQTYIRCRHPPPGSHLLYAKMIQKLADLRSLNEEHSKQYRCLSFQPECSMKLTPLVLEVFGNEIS
Procedure: The biological activity in vitro of chemically synthesized 1α,24(S)-(OH)2 D2 and 1α,24(R)-(OH)2 D2 was measured using a vitamin D-dependent transcriptional activation model system in which a vitamin D receptor (VDR)-expressing plasmid pSG5-hVDR1/3and a plasmid p(CT4)^4 TKGH containing a Growth Hormone (GH)-gene, under the control of a vitamin D-responsive element (VDRE) were co-transfected into Green monkey kidney, COS-1 cells. DNA's for these two vectors were supplied by Dr. Mark Haussler, Department of Biochemistry, University of Arizona, Tucson, Ariz.
Tranfected cells were incubated with vitamin D metabolites and growth hormone production was measured.

[1] = system: 1,25-(OH)2 D3 receptor site; conditions: Ishizuka et al., Steroids 1981, 1982; cited from earlier work
Hep 3B cells = experiment: Metabolite production in Hep 3B cells incubated with 1α-OH-D2; type: in vitro ADME, human; conditions: Experiment 2; substrate 1α-OH-D2 10 μM; photodiode array spectrophotometry
Procedure: Substantially pure 1α-(OH)D2 was obtained from Bone Care International, Inc. of Madison, Wis. The 1α-(OH)D2 was cultured for 48 hours with cells derived from a human hepatoma, Hep 3B, in medium devoid of fetal calf serum using known methods in the art.
Lipid extracts of the combined medium and cells were generated by known methods in the art and were subjected to high pressure liquid chromatography (HPLC) on Zorbax-S1L developed with hexane/isopropanol/methanol (91:7:2). The putative 1α,24(?)-(OH)2 D2 metabolite eluted between the parent 1α-(OH)D2 and standard 1α,25-(OH)2 D2 (also obtained from Bone Care International, Inc. of Madison, Wis.). (As used herein, the term "1α,24(?)-(OH)2 D2 " is meant to indicate that the epimeric form has not been identified.) The 1α,24(?)-(OH)2 D2 was further purified by this HPLC system before the metabolite's identification was undertaken using mass spectrometry analysis.
Hep 3B cells were incubated with 1α-OH-D2, as described above, at final concentrations of 1, 10, or 100 nM (Experiment 1), and 1 or 10 μM (Experiment 2) and 1α,24(S)-(OH)2 D2 was extracted and purified. The 1α,24(S)-(OH)2 D2 and 1α,25-(OH)2 D2 metabolites were quantitated by recovered radiolabel (Experiment 1) or by photodiode array spectrophotometry (Experiment 2).

[2] = system: human osteoporotic patients; conditions: dosages of 2.0 μg/day or higher; cited from earlier work
[3] = type: in vivo, rat
Procedure: Vitamin D2 or 24-OH-D2 was administered (either oral or intraperitoneal supplementation) to vitamin D-deficient rats. Lipid extracts of the plasma were prepared and the metabolites purified by the method of Horst et al. (Horst, R. L., Koszewski, N. J. and Reinhardt, T. A., Biochem., 29:578-82 (1990)) described below for synthesyzing standard biological 1α,24-(OH)2 D2.
Standard biological 1α,24-(OH)2 D2 was synthesized in vitro from 24-OH-D2 by incubating 10 μg of 24-OH-D2 in flask containing 5 ml of 20% kidney homogenates made from vitamin D-deficient chicks. The product of this reaction was isolated by HPLC and identified by mass spectrometry.

[4] = oral or intraperitoneal supplementation, vitamin D-deficient rats, HPLC

SMILES: C=C1/C(=C\C=C2/CCC[C@]3(C)[C@@H]([C@H](C)/C=C/[C@](C)(O)C(C)C)CC[C@@H]23)C[C@@H](O)C[C@@H]1O [1α,24(R)-(OH)2 D2, 1α,24(R)-dihydroxy vitamin D2]
- Total GH Production (vitamin D receptor (VDR); inducer 10^-7 molar): 1300 ng/mL
- Total GH Production (vitamin D receptor (VDR); inducer 10^-8 molar): 1100 ng/mL
- Net vitamin D-inducible GH-production (vitamin D receptor (VDR); inducer 10^-9 molar): 36 ng/mL
- Total GH Production (vitamin D receptor (VDR); inducer 10^-9 molar): 80 ng/mL

SMILES: C=C1/C(=C\C=C2/CCC[C@]3(C)[C@@H]([C@H](C)CC[C@@H](O)C(C)C)CC[C@@H]23)C[C@@H](O)C[C@@H]1O [1α,24(R)-(OH)2 D3, 1α,24(R)-dihydroxyvitamin D3]
- binding to the 1,25-(OH)2 D3 receptor site compared with 1,25-(OH)2 D3 [1]: more tightly than does 1,25-(OH)2 D3 itself

SMILES: C=C1/C(=C\C=C2/CCC[C@]3(C)[C@@H]([C@H](C)/C=C/[C@H](C)C(C)(C)O)CC[C@@H]23)C[C@@H](O)C[C@@H]1O [1α,25-(OH)2 D2, 1α,25-dihydroxy vitamin D2, reference compound]
- Rate of Production (Hep 3B cells): 7.4 pmol per 10^6 cells/day

SMILES: C=C1/C(=C\C=C2/CCC[C@]3(C)[C@@H]([C@H](C)/C=C/[C@H](C)C(C)C)CC[C@@H]23)C[C@@H](O)C[C@@H]1O [1α-(OH)D2, 1α-hydroxy vitamin D2]
- loss of bone mass [2]: will reverse the loss of bone mass

SMILES: C=C1CC[C@H](O)C/C1=C/C=C1\CCC[C@]2(C)[C@@H]([C@H](C)/C=C/C(C)(O)C(C)C)CC[C@@H]12 (some centres unmarked) [24-OH-D2, 24-hydroxyvitamin D2]
- metabolite found in lipid extracts of plasma ([3]; rat, in vivo): one metabolite isolated co-migrated on HPLC with the standard 1α,24-(OH)2 D2

SMILES: C=C1CC[C@H](O)C/C1=C/C=C1\CCC[C@]2(C)[C@@H]([C@H](C)CCCC(C)(C)O)CC[C@@H]12 [25-OH-D3, 25-hydroxy vitamin D3, reference compound]
- Total GH Production (vitamin D receptor (VDR); inducer 10^-6 molar): 1100 ng/mL

SMILES: C=C1CC[C@H](O)C/C1=C/C=C1\CCC[C@]2(C)[C@@H]([C@H](C)/C=C/[C@H](C)C(C)C)CC[C@@H]12 [vitamin D2, Vitamin D2]
- metabolite found in lipid extracts of plasma [3, 4]: one metabolite isolated co-migrated on HPLC with the standard 1α,24-(OH)2 D2

SMILES: C=C1CC[C@H](O)C/C1=C/C=C1\CCC[C@]2(C)[C@@H]([C@H](C)CCCC(C)C)CC[C@@H]12 [vitamin D3]
- metabolite found in lipid extracts of plasma [3, 4]: no detectable 24-OH-D3
